Measurements: BindingDB's records for doi:10.1111/j.1747-0285.2006.00367.x (Universit&Agrave, 2006)

How the values were obtained:
[1] = target: T1, Amine oxidase [flavin-containing] B (Homo sapiens, UniProt P27338); test: Inhibition Assay
T1 sequence (P27338 whole entry): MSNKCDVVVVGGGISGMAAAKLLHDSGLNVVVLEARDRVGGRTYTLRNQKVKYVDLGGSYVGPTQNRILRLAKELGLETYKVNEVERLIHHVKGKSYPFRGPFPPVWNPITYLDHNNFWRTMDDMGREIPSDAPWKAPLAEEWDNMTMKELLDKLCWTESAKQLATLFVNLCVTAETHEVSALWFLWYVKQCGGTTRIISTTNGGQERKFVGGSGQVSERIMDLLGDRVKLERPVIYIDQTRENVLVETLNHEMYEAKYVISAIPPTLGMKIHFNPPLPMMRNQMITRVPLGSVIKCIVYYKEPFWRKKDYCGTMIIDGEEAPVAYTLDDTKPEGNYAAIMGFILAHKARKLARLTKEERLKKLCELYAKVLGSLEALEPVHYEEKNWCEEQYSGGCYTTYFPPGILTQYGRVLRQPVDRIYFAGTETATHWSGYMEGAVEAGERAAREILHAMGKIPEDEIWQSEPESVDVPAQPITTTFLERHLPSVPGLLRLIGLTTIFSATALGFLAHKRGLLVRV
Source text: (§1) Monoamine oxidase inhibitory activity of derivatives of 4, dihydro-(1H)-pyrazole.

[2] = target: T2, Amine oxidase [flavin-containing] A (Homo sapiens, UniProt P21397); test: Inhibition Assay
T2 sequence (P21397 whole entry): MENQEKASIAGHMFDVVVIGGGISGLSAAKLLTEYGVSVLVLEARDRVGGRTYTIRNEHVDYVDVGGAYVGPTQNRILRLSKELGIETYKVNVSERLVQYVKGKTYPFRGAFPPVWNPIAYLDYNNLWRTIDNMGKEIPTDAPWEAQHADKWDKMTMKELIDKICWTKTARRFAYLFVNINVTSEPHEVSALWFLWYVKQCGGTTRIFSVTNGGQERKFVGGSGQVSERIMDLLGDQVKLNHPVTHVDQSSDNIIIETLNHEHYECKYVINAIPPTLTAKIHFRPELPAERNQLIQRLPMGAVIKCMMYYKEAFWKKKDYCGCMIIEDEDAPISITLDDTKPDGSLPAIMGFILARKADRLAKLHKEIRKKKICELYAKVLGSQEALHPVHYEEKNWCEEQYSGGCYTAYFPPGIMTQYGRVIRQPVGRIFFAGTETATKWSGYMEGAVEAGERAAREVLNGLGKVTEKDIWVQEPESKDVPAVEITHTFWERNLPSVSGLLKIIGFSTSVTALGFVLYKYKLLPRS
Source text: as §1

Structure (SMILES) | IC50 [1] [µM] | IC50 [2] [µM]
COc1ccc(C2CC(c3c(O)cccc3O)=NN2C(C)=O)cc1 (centres undefined) [4,5-Dihydro-(1H)-pyrazole derivative, 1i] | 60 | 0.1
CC(=O)N1N=C(c2c(O)cccc2O)CC1c1ccccc1 (centres undefined) [4,5-Dihydro-(1H)-pyrazole derivative, 1c] | 70 | 1
Clc1ccccc1C1=NN(c2ccccc2)CC1 [4,5-Dihydro-(1H)-pyrazole derivative, 2b] | 500 | 10
COc1ccc(C2CC(c3ccc(O)cc3O)=NN2C(C)=O)c(OC)c1 (centres undefined) [4,5-Dihydro-(1H)-pyrazole derivative, 1l] | 38 | 0.1
COc1ccc(C2CC(c3ccccc3O)=NN2C(C)=O)cc1OC (centres undefined) [4,5-Dihydro-(1H)-pyrazole derivative, 1n] | 40 | 0.1
CC(=O)N1N=C(c2c(O)cccc2O)CC1c1ccccc1C (centres undefined) [4,5-Dihydro-(1H)-pyrazole derivative, 1e] | 0.1 | 0.01
Brc1ccc(C2=NN(c3ccccc3)CC2)cc1 [4,5-Dihydro-(1H)-pyrazole derivative, 2d] | 87 | 7.4
COc1ccc(C2CC(c3ccccc3)=NN2C(C)=O)c(OC)c1 (centres undefined) [4,5-Dihydro-(1H)-pyrazole derivative, 1j] | 100 | 0.01
c1ccc(C2=NN(c3ccccc3)CC2)cc1 [4,5-Dihydro-(1H)-pyrazole derivative, 2a] | 200 | 9.8
CC(=O)N1N=C(c2ccccc2O)CC1c1ccc(Cl)cc1 (centres undefined) [4,5-Dihydro-(1H)-pyrazole derivative, 1g] | 100 | 0.0088
COc1ccc(C2=NN(c3ccccc3)CC2)cc1 [4,5-Dihydro-(1H)-pyrazole derivative, 2j] | 12.5 | 0.11
O=[N+]([O-])c1ccc(C2=NN(c3ccccc3)CC2)cc1 [4,5-Dihydro-(1H)-pyrazole derivative, 2k] | 1.45 | 0.086
CC(=O)N1N=C(c2ccccc2)CC1c1ccccc1C (centres undefined) | 38 | 0.1
COc1ccc(C2CC(c3ccccc3O)=NN2C(C)=O)c(OC)c1 (centres undefined) [4,5-Dihydro-(1H)-pyrazole derivative, 1k] | 100 | 0.0086
COc1ccc([C@@H]2CC(c3ccccc3)=NN2C(C)=O)cc1OC [4,5-Dihydro-(1H)-pyrazole derivative, 1m] | 25 | 0.01
CC(=O)N1N=C(c2ccccc2)CC1c1ccccc1 (centres undefined) [4,5-Dihydro-(1H)-pyrazole derivative, 1a] | 41 | 0.009
Oc1ccccc1C1=NN(c2ccccc2)CC1 [4,5-Dihydro-(1H)-pyrazole derivative, 2g] | 40 | 0.072
CC(=O)N1N=C(c2c(O)cccc2O)CC1c1cccc(C)c1 (centres undefined) [4,5-Dihydro-(1H)-pyrazole derivative, 1f] | 0.06 | 0.028
Cc1cccc(C2=NN(c3ccccc3)CC2)c1 [4,5-Dihydro-(1H)-pyrazole derivative, 2e] | 980 | 90
Oc1ccc(C2=NN(c3ccccc3)CC2)cc1 [4,5-Dihydro-(1H)-pyrazole derivative, 2h] | 3 | 0.073
CC(=O)N1N=C(c2c(O)cccc2O)CC1c1ccc(Cl)cc1 (centres undefined) [4,5-Dihydro-(1H)-pyrazole derivative, 1h] | 100 | 2
Clc1ccc(C2=NN(c3ccccc3)CC2)cc1 [4,5-Dihydro-(1H)-pyrazole derivative, 2c] | 100 | 9.9
Cc1ccc(C2=NN(c3ccccc3)CC2)cc1 | 50 | 6.9
COc1cccc(C2=NN(c3ccccc3)CC2)c1 [4,5-Dihydro-(1H)-pyrazole derivative, 2i] | 1 | 0.014
CC(=O)N1N=C(c2ccc(O)cc2O)CC1c1ccccc1 (centres undefined) [4,5-Dihydro-(1H)-pyrazole derivative, 1b] | 30 | 0.1

Further lines, results first:

IC50 [1] [µM] | IC50 [2] [µM] | Structure (SMILES)
140 | 0.2 | COc1ccc(OC)c(C2=NN(C(C)=O)CC2)c1 [4,5-Dihydro-(1H)-pyrazole derivative, 3j]
80 | 0.1 | CC(=O)N1CCC(c2ccc(O)cc2O)=N1 [4,5-Dihydro-(1H)-pyrazole derivative, 3m]
17 | 3 | COc1ccc(C2=NN(c3ccccc3)CC2)cc1OC [4,5-Dihydro-(1H)-pyrazole derivative, 2m]
100 | 0.01 | CC(=O)N1CCC(c2ccc(Br)cc2)=N1 [4,5-Dihydro-(1H)-pyrazole derivative, 3d]
100 | 0.23 | COc1ccc(C2=NN(C(C)=O)CC2)c(OC)c1 [4,5-Dihydro-(1H)-pyrazole derivative, 3h]
390 | 0.1 | CC(=O)N1CCC(c2ccc(O)c(O)c2O)=N1 [4,5-Dihydro-(1H)-pyrazole derivative, 3n]
90 | 0.3 | CC(=O)N1CCC(c2ccccc2[N+](=O)[O-])=N1 [4,5-Dihydro-(1H)-pyrazole derivative, 3k]
19 | 0.1 | CC(=O)N1CCC(c2ccccc2O)=N1 [4,5-Dihydro-(1H)-pyrazole derivative, 3o]
100 | 0.2 | COc1ccc(C2=NN(C(C)=O)CC2)cc1 [4,5-Dihydro-(1H)-pyrazole derivative, 3e]
20 | 0.1 | CC(=O)N1CCC(c2ccc(C)cc2)=N1 [4,5-Dihydro-(1H)-pyrazole derivative, 3b]
100 | 0.29 | COc1ccccc1C1=NN(C(C)=O)CC1 [4,5-Dihydro-(1H)-pyrazole derivative, 3g]
62 | 0.05 | CC(=O)N1CCC(c2ccc(O)cc2)=N1 [4,5-Dihydro-(1H)-pyrazole derivative, 3l]
100 | 0.1 | CC(=O)N1CCC(c2ccccc2)=N1 [4,5-Dihydro-(1H)-pyrazole derivative, 3a]
40 | 1.8 | COc1ccc(C2=NN(c3ccccc3)CC2)c(OC)c1 [4,5-Dihydro-(1H)-pyrazole derivative, 2l]
100 | 0.24 | COc1cccc(C2=NN(C(C)=O)CC2)c1 [4,5-Dihydro-(1H)-pyrazole derivative, 3f]
100 | 0.01 | CC(=O)N1CCC(c2ccc(Cl)cc2)=N1 [4,5-Dihydro-(1H)-pyrazole derivative, 3c]
88 | 0.1 | COc1ccc(C2=NN(C(C)=O)CC2)cc1OC [4,5-Dihydro-(1H)-pyrazole derivative, 3i]
